Source: patent US8772499B2, “TRPV3 modulators” (AbbVie Inc., priority 2011, dated 2014)
Read-outs that look alike come from different tables or passages of the source.

Assays:
[1] = In vitro human microsomal stability assay; assay type: in vitro ADME; details: for HUMAN MICROSOMAL STABILITY (% REMAINING AFTER 30 MINUTES): microsomes, 0.5 h, 0.5 μM, pH 7.4
Summary of the method: (§1)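 Compound is mixed with liver microsomes (human, or rat of the Sprague-Dawley strain). The mixture is then held at 37° C. in the presence of NADPH. Time-zero plates also receive NADPH.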

[2] = test system: chronic constriction injury (CCI) model of neuropathic pain; experiment: In vivo chronic constriction injury (CCI) model of neuropathic pain, mechanical allodynia (von Frey); set-up: species or system CD1 mice; details: 100 mg/kg oral dose, mechanical allodynia 1 hour after dosing, CCI mice, average of eight mice, vehicle 0%, control 100%; for inhibition in vivo at 100 mg/kg: Mus musculus, po, 1 h, read-out: % EFFECT
Experimental: Test compounds were evaluated for analgesic effect in an in vivo chronic constriction injury (CCI) model of neuropathic pain. CD1 mice (Charles River) were used for these studies. Prior to testing (2-4 weeks) animals underwent a surgical procedure consisting of approximately 3 loose ligatures around the sciatic nerve. Following sterilization procedures, under isofluorane anesthetic, a 1.5 cm incision was made dorsal to the pelvis. The biceps femoris and gluteous superficialis (right side) were separated and the sciatic nerve exposed, isolated, and 2-4 loose ligatures (5-0 chromic gut) with less than 1 mm spacing were placed around it. Following hemostasis, the wound was sutured (layer of muscle closed with 5-0 nylon suture, and the wound closed with surgical staples) and coated with iodine. The mice were allowed to recover on a warming plate and were returned to their home cages (soft bedding) when able to walk on their own.
Two to four weeks after the surgery, test compound was administered orally (PO) in these mice, and mechanical allodynia was evaluated 1 hour after oral dosing where the threshold to response was assessed using calibrated von Frey monofilaments. The von Frey monofilaments were applied to the hind paw at increasing forces until the animal responded by lifting its paw. Normally, the force of the von Frey monofilament was innocuous and only in the altered state (allodynia or hyperalgesia) did the animals respond to this stimulation. […] At the end of the experiment, after behavioral testing, plasma (and in some instances brain tissue) was taken for exposure analysis.
Each test compound was evaluated in eight different mice. The data reported in Table 3 represent the average value of the approximate percent effect of each compound in relieving neuropathic pain in mice receiving 100 mg/kg oral dose of the test compound. The grams of force needed to elicit a withdrawal response from the injured mouse that was challenged with vehicle was assigned a 0% effect, while the grams of force needed to elicit a withdrawal response from the control was given a 100% effect.

[3] = target: T1, human TRPV3 (Homo sapiens, UniProt Q8NET8); experiment: In vitro antagonism of recombinant human TRPV3 activation (FLIPR Tetra calcium assay); assay type: cell-based; details: HEK293 cells stably expressing human TRPV3, agonist 2-APB at 80 μM
T1 construct: expressed in transfected cells
T1 sequence (Q8NET8 1-790): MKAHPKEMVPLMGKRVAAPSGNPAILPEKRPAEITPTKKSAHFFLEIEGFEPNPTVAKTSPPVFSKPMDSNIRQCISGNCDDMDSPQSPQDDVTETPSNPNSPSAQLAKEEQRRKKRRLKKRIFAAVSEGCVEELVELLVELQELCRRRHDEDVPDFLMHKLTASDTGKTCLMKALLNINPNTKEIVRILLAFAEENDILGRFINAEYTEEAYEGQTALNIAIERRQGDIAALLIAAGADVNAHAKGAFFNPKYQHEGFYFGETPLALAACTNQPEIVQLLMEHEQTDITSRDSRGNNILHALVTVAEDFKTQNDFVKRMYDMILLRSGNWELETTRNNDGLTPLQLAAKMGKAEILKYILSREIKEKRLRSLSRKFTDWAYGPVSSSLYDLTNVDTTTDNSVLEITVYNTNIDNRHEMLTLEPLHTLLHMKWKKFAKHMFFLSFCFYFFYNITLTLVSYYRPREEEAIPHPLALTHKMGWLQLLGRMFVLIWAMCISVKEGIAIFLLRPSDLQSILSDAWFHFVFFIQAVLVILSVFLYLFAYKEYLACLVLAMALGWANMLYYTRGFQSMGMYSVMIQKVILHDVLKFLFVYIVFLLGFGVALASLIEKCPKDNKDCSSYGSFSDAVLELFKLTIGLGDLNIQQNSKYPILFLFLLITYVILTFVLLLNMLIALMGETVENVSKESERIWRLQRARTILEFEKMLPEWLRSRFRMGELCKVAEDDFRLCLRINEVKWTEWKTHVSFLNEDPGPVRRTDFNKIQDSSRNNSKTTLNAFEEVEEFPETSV
Summary of the method: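 HEK293 cells stably expressing human TRPV3, loaded with Calcium-4 dye for 90–120 min, received compound in DPBS, then 80 μM 2-APB (EC80) 3 min later. Max-minus-min fluorescence expressed as % of 2-APB response without antagonist; IC50 values mostly averages of n≥2 runs.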

[4] = In vitro rat microsomal stability assay; assay type: in vitro ADME, rat (Sprague-Dawley); details: for RAT MICROSOMAL STABILITY (% REMAINING AFTER 30 MINUTES): Sprague-Dawley, microsomes, 0.5 h, 0.5 μM, pH 7.4
Summary of the method: as §1

[5] = actual measured value shown parenthetically, in most cases average of at least two runs, read-out: IC50
[6] = reported range, read-out: IC50 (range class)

Row | SMILES | HUMAN MICROSOMAL STABILITY (% REMAINING AFTER 30 MINUTES) [1] [%] | IC50 [3, 5] [nM] | RAT MICROSOMAL STABILITY (% REMAINING AFTER 30 MINUTES) [4] [%] | inhibition in vivo at 100 mg/kg [2] [%] | HUMAN […] (% REMAINING AFTER 30 MINUTES) ([1]; human liver microsomes, 0.5 μM substrate, 0.25 mg/mL microsomal protein, pH 7.4, 37° C., NADPH, 30 minutes) [%] | % EFFECT [2] [%] | IC50 [3, 6] [nM] | RAT […] (% REMAINING AFTER 30 MINUTES) ([4]; rat liver microsomes (Sprague-Dawley), 0.5 μM substrate, 0.25 mg/mL microsomal protein, pH 7.4, 37° C., NADPH, 30 minutes) [%]
1 | CC1(O)CC(c2ccc(C(F)(F)F)cc2)(C(O)c2ccccn2)C1 (single isomer, unassigned) [Example 232] | 80 | 1950 | 67 | 65 |  |  |  | 
2 | O[C@H](c1ccccn1)C1(c2ccc(OC(F)(F)F)cc2)CC(F)(F)C1 [Example 128, (S)-{3,3-difluoro-1-[4-(trifluoromethoxy)phenyl]cyclobutyl}(pyridin-2-yl)-methanol] | 59 | 110 | 67 | 78 |  |  |  | 
3 | C[C@]1(O)C[C@](c2cc(C(F)(F)F)ccn2)([C@H](O)c2ccccn2)C1 (relative stereo) [Example 285, cis-3-[(S)-hydroxy(pyridin-2-yl)methyl]-1-methyl-3-[4-(trifluoromethyl)-pyridin-2-yl]cyclobutanol] |  | 1000 |  |  | 83 | 59 | 501 to 1000 | 69
4 | OC1CC(c2ccc(Cl)c(Cl)c2)(C(O)c2ccccn2)C1 (single isomer, unassigned) [Example 118] | >85 | 220 | 74 |  |  | 89 |  | 
5 | CC1(O)CC(c2cccc(C(F)(F)F)c2)(C(O)c2ccccn2)C1 (single isomer, unassigned) [Example 236] | 54 | 760 | 41 | 33 |  |  |  | 
6 | OC1CC(c2ccnc(C(F)(F)F)c2)(C(O)c2ccccn2)C1 [Example 306, trans-3-[(S)-hydroxy(pyridin-2-yl)methyl]-3-[2-(trifluoromethyl)pyridin-4-yl]cyclobutanol] | >85 | 140 | >85 | 0 |  |  |  | 
7 | OC1CC(c2ccc(Cl)c(Cl)c2)(C(O)c2ccccn2)C1 (single isomer, unassigned) [Example 119] | >85 | 570 | 69 |  |  | 16 |  | 
8 | OC(c1ccccn1)C1(c2ccc(F)c(C(F)(F)F)c2)CCC1 (stereo not shown) [Example 15, {1-[4-fluoro-3-(trifluoromethyl)phenyl]cyclobutyl}(pyridin-2-yl)methanol] | 5.6 | 310 | 1.2 |  |  |  |  | 
9 | O=C1CC(c2ccc(C(F)(F)F)cc2)([C@@H](O)c2ccccn2)C1 (single isomer, unassigned) [Example 165] | 83 | 16600 | 77 |  |  |  |  | 
10 | OC1CC(c2cncc(C(F)(F)F)c2)(C(O)c2ccccn2)C1 [Example 303, cis-3-[(S)-hydroxy(pyridin-2-yl)methyl]-3-[5-(trifluoromethyl)pyridin-3-yl]cyclobutanol] | 80 | 530 | 32 |  |  |  |  | 
11 | OC(c1ccccn1)C1(c2ccc(Cl)c(Cl)c2)CCCO1 (single isomer, unassigned) [Example 99, (syn)-[2-(3,4-dichlorophenyl)tetrahydrofuran-2-yl](pyridin-2-yl)methanol] | 30 | 1240 | 0.17 |  |  |  |  | 
12 | Nc1cccnc1C(O)C1(c2cccc(C(F)(F)F)c2)CCC1 (stereo not shown) [Example 120, (3-aminopyridin-2-yl) {1-[3-(trifluoromethyl)phenyl]cyclobutyl}methanol] | 1.6 | > 20000 | <0.01 |  |  |  | > 20000 | 

More lines, main results first:

Row | HUMAN MICROSOMAL STABILITY (% REMAINING AFTER 30 MINUTES) [1] [%] | IC50 [3, 5] [nM] | RAT MICROSOMAL STABILITY (% REMAINING AFTER 30 MINUTES) [4] [%] | SMILES | inhibition in vivo at 100 mg/kg [2] [%] | HUMAN […] (% REMAINING AFTER 30 MINUTES) ([1]; human liver microsomes, 0.5 μM substrate, 0.25 mg/mL microsomal protein, pH 7.4, 37° C., NADPH, 30 minutes) [%] | % EFFECT [2] [%] | IC50 [3, 6] [nM] | RAT […] (% REMAINING AFTER 30 MINUTES) ([4]; rat liver microsomes (Sprague-Dawley), 0.5 μM substrate, 0.25 mg/mL microsomal protein, pH 7.4, 37° C., NADPH, 30 minutes) [%]
13 | 70 | 2520 | 25 | CN[C@@H]1CCC[C@H]1[C@@H](O)C1(c2ccc(Cl)c(Cl)c2)CCC1 [Example 228, (R)-[1-(3,4-dichlorophenyl)cyclobutyl][(1R,2R)-2-(methylamino)-cyclopentyl]methanol] | 52 |  |  |  | 
14 | 24 | 390 | 9.5 | O[C@H](c1ccccn1)[C@]1(c2ccc(Cl)c(Cl)c2)CCO1 [Example 136, (R)-[(2R)-2-(3,4-dichlorophenyl)oxetan-2-yl](pyridin-2-yl)methanol] | 52 |  |  |  | 
15 | 48 | 630 | 57 | C[C@]1(O)C[C@@](c2cccc(OC(F)(F)F)c2)([C@H](O)c2ccccn2)C1 [Example 262, cis-3-[(S)-hydroxy(pyridin-2-yl)methyl]-1-methyl-3-[3-(trifluoromethoxy)-phenyl]cyclobutanol] | 45 |  |  |  | 
16 | 70 | 9230 | 70 | C[C@]1(O)C[C@@](c2ccc(OC(F)(F)F)cc2)([C@@H](O)c2ccccn2)C1 [Example 250, cis-3-[(R)-hydroxy(pyridin-2-yl)methyl]-1-methyl-3-[4-(trifluoromethoxy)-phenyl]cyclobutanol] | 57 |  |  |  | 
17 | 1.7 | 5020 | 0.05 | Cc1ccc(CC2(C(O)c3ccccn3)CCC2)cc1 (stereo not shown) [Example 52, [1-(4-methylbenzyl)cyclobutyl](pyridin-2-yl)methanol] |  |  |  |  | 
18 | 26 | 830 | 2.9 | OC(c1ccccn1)C1(c2cccc(F)c2)CCCO1 (single isomer, unassigned) [Example 100, (anti)-[2-(3-fluorophenyl)tetrahydrofuran-2-yl](pyridin-2-yl)methanol] |  |  |  |  | 
19 | 46 | 330 | 0.01 | COC1(OC)CC(c2ccc(OC(F)(F)F)cc2)(C(O)c2ccccn2)C1 (stereo not shown) [Example 129, {3,3-dimethoxy-1-[4-(trifluoromethoxy)phenyl]cyclobutyl}(pyridin-2-yl)-methanol] |  |  |  |  | 
